Consider 5 compounds from ChEMBL document CHEMBL1914347, “Palmerolide macrolides from the Antarctic tunicate Synoicum adareanum” (Bioorg Med Chem, 2011).

Experiment [1] in a line: Inhibition of bovine brain Vo domain of V-ATPase activity assessed as ATP-mediated proton translocation by spectrophotometric analysis. Also noted: species or system Bos taurus.
For experiment [2], the system named is UACC-62. The experiment is described as follows: Cytotoxicity against human UACC62 cells after 48 hrs by SRB assay. Particulars: UACC-62, 48 h. It is filed as functional, cell-based. A general note: Sulforhodamine B stains cellular protein and so reports cell mass.
A short description of experiment [3]: Cytotoxicity against human NCI60 cells. Particulars: read-out: LC50 (the source's name). The experiment is classed as functional.
A short description of experiment [4]: Ratio of IC50 for bovine brain Vo domain of V-ATPase activity to IC50 for human UACC62 cells. Also noted: species or system UACC-62.

The structures appear in SMILES notation.

Usually IC50 stands for the concentration needed to halve the response being measured. Regarding `CC(C)=CC(=O)N/C=C/C(C)=C/[C@@H](C)[C@H]1C/C(C)=C/C=C/CC[C@H](OC(N)=O)[C@@H](O)/C=C/[C@@H](O)CCC/C=C/C(=O)O1` [PALMEROLIDE A], the IC50 is 0.002 µM in experiment [1] and 0.024 µM in experiment [2]. For the same compound, the CC50 in experiment [3] is 0.018 µM. Besides, in experiment [4], the “Ratio IC50” value turned out to be 0.083.
Take `C=C(C)C/C(C)=C\C(=O)N/C=C/C(C)=C/[C@@H](C)[C@H]1C/C(C)=C/C=C/CC[C@H](OC(N)=O)[C@@H](O)/C=C/[C@@H](O)CCC/C=C/C(=O)O1` [PALMEROLIDE D]: the IC50 in experiment [1] came to 0.025 µM; in experiment [2], 0.002 µM. Besides, the “Ratio IC50” value in experiment [4] stood at 12.5.
`C/C(C=O)=C\[C@@H](C)[C@H]1C/C(C)=C/C=C/CC[C@H](OC(N)=O)[C@@H](O)/C=C/[C@@H](O)CCC/C=C/C(=O)O1` [PALMEROLIDE E]: the values for the IC50 in experiment [1] and in experiment [2] were above 10000 µM and 5000 µM, respectively. Also, in experiment [4], the “Ratio IC50” value is reported as above 2.
For `C=C(C)CC(=O)N/C=C/C(C)=C/[C@@H](C)[C@H]1C/C(C)=C/C=C/CC[C@H](OC(N)=O)[C@@H](O)/C=C/[C@@H](O)CCC/C=C/C(=O)O1` [PALMEROLIDE F], in that order: 0.063 µM, 0.758 µM and 0.083.
For `CC(C)=CC(=O)N/C=C/C(C)=C\[C@@H](C)[C@H]1C/C(C)=C/C=C/CC[C@H](OC(N)=O)[C@@H](O)/C=C/[C@@H](O)CCC/C=C/C(=O)O1` [PALMEROLIDE G], in that order: 0.007 µM, 1.21 µM and 0.006.
